This note sets out measurements from ChEMBL document CHEMBL4725277, “Synthetic and therapeutic perspectives of nitrogen containing heterocycles as anti-convulsants” (Bioorg Med Chem, 2020).

Each structure is given as a SMILES string.

The species entered for series [1] is Mus musculus. Put plainly: Anticonvulsant activity in albino mouse assessed as current-induced seizure relative to control. In kind it is functional.
For series [2], the species on record is Mus musculus. The series is described as follows: Anticonvulsant activity in albino mouse assessed as current-induced seizure latency time. It is filed as functional.
Series [3] is filed under the species Mus musculus. Put plainly: Anticonvulsant activity in albino mouse assessed as protection against 50 mA current-induced seizure. It is filed as functional. The conditions noted are these: read-out: PD50.
For series [4], the species on record is Mus musculus. The series is described as follows: Anticonvulsant activity in KunMing mouse assessed as protection against 50 mA current-induced seizure after 0.5 to 4 hrs by maximal electroshock seizure test. In kind it is functional. The conditions noted are these: time hrs 0.5-4. For orientation: Protection in the maximal electroshock model is a classic sign of anticonvulsant action.

In series [5] the test system is Mus musculus. The series is described as follows: Anticonvulsant activity in albino mouse assessed as protection against 50 mA current-induced seizure at 30 mg/kg by maximal electroshock seizure test relative to control. In kind it is functional.
Series [6] relates to Mus musculus. The series is described as follows: Anticonvulsant activity in albino mouse assessed as protection against 50 mA current-induced seizure at 20 mg/kg by maximal electroshock seizure test relative to control. It is filed as functional.
The species named for series [7] is Mus musculus. Put plainly: Anticonvulsant activity in mouse assessed as protection against current-induced seizure by maximal electroshock seizure test. In kind it is functional.
For series [8], the system named is Mus musculus. The series is described as follows: Anticonvulsant activity in albino mouse assessed as protection against 50 mA current-induced seizure at 10 mg/kg by maximal electroshock seizure test relative to control. In kind it is functional.
For series [9], the species on record is Mus musculus. Put plainly: Anticonvulsant activity in KunMing mouse assessed as protection against 50 mA current-induced seizure after 30 mins interval by maximal electroshock seizure test. In kind it is functional. The note with it: 0.5 h.
The nature of series [10]: Protective index, ratio of TD50 for neurotoxicity in KunMing mouse to ED50 for anticonvulsant activity in KunMing mouse assessed as protection against 50 mA current-induced seizure. It is filed as toxicity. The conditions noted are these: in vivo, read-out: PI.
Series [11] is described as follows: Neurotoxicity in KunMing mouse after 30 mins by rotarod test. The note with it: in vivo. It is filed as toxicity.
Series [12] in a line: Protective index, ratio of TD50 for neurotoxicity in ip and po injected mouse to ED50 for anticonvulsant activity in mouse assessed as protection against 50 mA current-induced seizure. In kind it is toxicity, organism-based. The conditions noted are these: in vivo, read-out: PI.
For series [13], the species on record is Mus musculus. The series is described as follows: Anticonvulsant activity in mouse assessed as protection against 50 mA current-induced seizure after 0.5 hrs by maximal electroshock seizure test. It is filed as functional.
The nature of series [14]: Neurotoxicity in ip and po injected mouse. In kind it is toxicity, organism-based. The conditions noted are these: in vivo.
The test system of series [15] is Mus musculus. The series is described as follows: Anticonvulsant activity in albino mouse assessed as protection against 50 mA current-induced seizure at 200 mg/kg by maximal electroshock seizure test relative to control. In kind it is functional.
The test system of series [16] is Mus musculus. Put plainly: Anticonvulsant activity in albino mouse assessed as protection against 50 mA current-induced seizure at 100 mg/kg by maximal electroshock seizure test relative to control. In kind it is functional.
The test system of series [17] is Mus musculus. Put plainly: Anticonvulsant activity in albino mouse assessed as protection against 50 mA current-induced seizure at 50 mg/kg by maximal electroshock seizure test relative to control. In kind it is functional.
Series [18] can be described thus: Neurotoxicity in mouse by rotarod test. The note with it: in vivo. It is filed as toxicity.
The nature of series [19]: Protective index, ratio of TD50 for neurotoxicity in mouse to ED50 for anticonvulsant activity in mouse assessed as protection against 50 mA current-induced seizure. In kind it is toxicity. The note with it: in vivo, read-out: PI.
For series [20], the species on record is Mus musculus. Put plainly: Anticonvulsant activity in albino mouse assessed as pentylenetetrazole-induced seizure. It is filed as functional.
Series [21] is described as follows: Protective index, ratio of TD50 for neurotoxicity in mouse to ED50 for anticonvulsant activity in mouse assessed as protection against current-induced seizure. It is filed as toxicity. The note with it: in vivo, read-out: PI.
Series [22] can be described thus: Protective index, ratio of TD50 for neurotoxicity in mouse to ED50 for anticonvulsant activity in mouse assessed as protection against pentylenetetrazole-induced seizure. In kind it is toxicity. The conditions noted are these: in vivo, read-out: PI.
The species named for series [23] is Mus musculus. The series is described as follows: Anticonvulsant activity in KunMing mouse assessed as protection against current-induced seizure by maximal electroshock seizure test. It is filed as functional.
The species named for series [24] is Mus musculus. The series is described as follows: Anticonvulsant activity in albino mouse assessed as pentylenetetrazole-induced seizure measured after 30 mins. In kind it is functional. The conditions noted are these: 0.5 h.
Series [25] relates to Mus musculus. The series is described as follows: Anticonvulsant activity in ip injected albino mouse assessed as protection against 50 mA current-induced seizure after 0.5 to 4 hrs interval by maximal electroshock seizure test. The note with it: time hrs 0.5-4. In kind it is functional.
The nature of series [26]: Neurotoxicity in ip injected albino mouse. In kind it is toxicity, organism-based. The conditions noted are these: in vivo.
Series [27] in a line: Protective index, ratio of TD50 for neurotoxicity in KunMing mouse to ED50 for anticonvulsant activity in KunMing mouse assessed as protection against pentylenetetrazole-induced seizure. In kind it is toxicity. The conditions noted are these: in vivo, read-out: PI.
Series [28] is described as follows: Protective index, ratio of TD50 for neurotoxicity in KunMing mouse to ED50 for anticonvulsant activity in KunMing mouse assessed as protection against current-induced seizure. In kind it is toxicity. The note with it: in vivo, read-out: PI.
Series [29] in a line: Neurotoxicity in KunMing mouse by rotarod test. It is filed as toxicity. The conditions noted are these: in vivo.
Series [30] is filed under the species Mus musculus. The series is described as follows: Anticonvulsant activity in KunMing mouse assessed as protection against pentylenetetrazole-induced seizure by maximal electroshock seizure test. In kind it is functional.
Series [31] can be described thus: Protective index, ratio of TD50 for neurotoxicity in ip injected albino mouse to ED50 for anticonvulsant activity in ip injected albino mouse assessed as protection against 50 mA current-induced seizure. In kind it is toxicity, organism-based. The conditions noted are these: in vivo, read-out: Ratio.
Series [32] can be described thus: Protective index, ratio of TD50 for neurotoxicity in ip injected albino mouse to ED50 for anticonvulsant activity in albino mouse assessed as pentylenetetrazole-induced seizure. The note with it: in vivo, read-out: Ratio. It is filed as toxicity, organism-based.
Series [33] deals with Mus musculus. The series is described as follows: Anticonvulsant activity in ip injected albino mouse assessed as protection against 50 mA current-induced seizure by maximal electroshock seizure test. It is filed as functional.

`CC(=O)Oc1cc2ccccc2cc1-c1nnc(N(C(C)=O)c2cccc(F)c2)s1`: in the series listed under Mus musculus [1], the Activity is listed as 70%. The Time in the series listed under Mus musculus [2] was 4.41 min.

On to `CCC1(c2ccccc2)C(=O)NC(=O)NC1=O` [PHENOBARBITAL], for which the ED50 in the series listed under Mus musculus [3] worked out at 14.4 mg/kg; in the series listed under Mus musculus [4], 21.8 mg/kg; in the series listed under Mus musculus [7], 21.8 mg/kg. Moreover, the values for the Activity in the series on Mus musculus [5], with Mus musculus [6] and in the series with Mus musculus [8] were 100%, 60% and 40%, respectively.

Consider `CCCCCCOc1ccc2c(c1)CCc1nnc(C(N)=O)n1-2`, for which the ED50 in the series listed under Mus musculus [9] came out at 30.1 mg/kg. The selectivity ratio in series [10] amounted to 9.5. The TD50 (in general, the dose at which the toxic effect under study appears in half of the subjects) at 0.5 h in [11] was determined as 286 mg/kg.

As to `O=c1c2ccccc2n2cnnc2n1-c1ccc(Cl)cc1`, in [12], the selectivity ratio was above 25.6. Besides, in the series filed under Mus musculus [13], the ED50 is listed as 27.39. Also, in series [14], the TD50 was above 700 mg/kg.

As for `O=C1CN=C2c3ccccc3N=C(COc3ccc(Cl)cc3Cl)N2N1`, the ED50 in the series filed under Mus musculus [3] is 87.5 mg/kg. Also, the values for the Activity in the series on Mus musculus [15], with Mus musculus [16] and in the series with Mus musculus [17] were 90%, 90% and 60%, respectively.

On to `O=C(CNC(=O)c1ccncc1)Nn1c(COc2ccc(Cl)cc2Cl)nc2ccccc2c1=O`, for which the ED50 in the series listed under Mus musculus [3] is 103 mg/kg. Besides, the results for the Activity in the series on Mus musculus [15], with Mus musculus [16] and with Mus musculus [17] were 80%, 70% and 50%, respectively.

Regarding `CC(=O)Oc1cc2ccccc2cc1-c1nnc(N(CCc2ccccc2)C(C)=O)s1`, the Activity in the series listed under Mus musculus [1] is given as 90%. Besides, the Time in the series filed under Mus musculus [2] was 5.92 min.

Consider `O=c1[nH]nc2n1-c1ccc(OCc3ccc(F)cc3)cc1SCC2`, for which the ED50 in the series filed under Mus musculus [4] came to 26.3 mg/kg. Besides, in [18], the TD50 is 331 mg/kg. Also, the selectivity ratio in [19] is 12.6.

In [18], `FC(F)(F)c1cccc(COc2nn3cnnc3c3ccccc23)c1` returned a TD50 of 853 mg/kg. Further, the selectivity ratio in series [19] is 91.7. In addition, the ED50 in the series listed under Mus musculus [13] (Mus musculus, read-out: ED50) was determined as 9.3 mg/kg.

In the case of `Cc1ccc(NC(=S)N2C(=S)N=C(c3ccccc3)CC2c2ccc(O)cc2)cc1` (centres undefined), the ED50 in the series filed under Mus musculus [20] is 278 mg/kg; in the series listed under Mus musculus [7] it was 15.6 mg/kg. The results for the selectivity ratio in series [21] and in series [22] were 34.2 and 1.9, respectively. In series [18], this molecule returned a TD50 of 534 mg/kg.

Turning to `NC(=O)N1c2ccccc2C=Cc2ccccc21` [CARBAMAZEPINE], the ED50 in the series filed under Mus musculus [20] was above 100 mg/kg; in the series filed under Mus musculus [4], 9.8 mg/kg; in the series listed under Mus musculus [9], 10.1 mg/kg; in the series listed under Mus musculus [23], 11.8 mg/kg; in the series listed under Mus musculus [24], above 100 mg/kg; in the series filed under Mus musculus [7], 11.8 mg/kg. In the series on Mus musculus [25], the ED50 was found to be 8.8 mg/kg. Also, the TD50 came out at 11.8 mg/kg in series [18] and 65.5 mg/kg in series [26]. The same molecule registered a TD50 at 0.5 h in [11] of 69.1 mg/kg.

Regarding `O=c1c2ccccc2n2cnnc2n1-c1ccc(Br)cc1`, the selectivity ratio in [12] was above 26. The ED50 in the series filed under Mus musculus [13] stood at 26.89. For the same molecule, in series [14], the TD50 was above 700 mg/kg.

With `Clc1ccc(C2Cc3nncn3-c3ccsc32)cc1` (centres undefined), the figures for the selectivity ratio in [27] and in series [28] were 22.2 and 48, respectively. Also, the ED50 was 9.5 mg/kg in the series filed under Mus musculus [23] and 20.5 mg/kg in the series listed under Mus musculus [30]. Also, the TD50 in series [29] (KunMing, read-out: TD50) amounted to 456 mg/kg.

As to `CN(C)c1ccc(C2CC(c3ccccc3)=NC(=S)N2C(=S)Nc2ccccc2)cc1` (centres undefined), the ED50 was 332 mg/kg in the series filed under Mus musculus [20] and 32.2 mg/kg in the series filed under Mus musculus [7]. Moreover, the results for the selectivity ratio in series [21] and in [22] were 18 and 1.7, respectively. Besides, in [18], the TD50 is 580 mg/kg.

For the molecule `CCC1(C)CC(=O)NC1=O` (centres undefined) [ETHOSUXIMIDE], the ED50 in the series filed under Mus musculus [20] is 130 mg/kg; in the series with Mus musculus [33], above 1000 mg/kg; in the series filed under Mus musculus [30], 106 mg/kg. Moreover, the selectivity ratio was below 0.44 in series [31] and 3.39 in series [32]. In [29], this molecule yielded a TD50 of 343 mg/kg.
